Read-outs that look alike come from different tables or passages of the source.
Tests used:
[1] = target: T1, human topoisomerase I (Homo sapiens, UniProt P11387); details: relative topoisomerase I inhibition levels, previously determined, six levels (0 - 5, +++++ = 5); cited from earlier work
T1 sequence (P11387 1-765): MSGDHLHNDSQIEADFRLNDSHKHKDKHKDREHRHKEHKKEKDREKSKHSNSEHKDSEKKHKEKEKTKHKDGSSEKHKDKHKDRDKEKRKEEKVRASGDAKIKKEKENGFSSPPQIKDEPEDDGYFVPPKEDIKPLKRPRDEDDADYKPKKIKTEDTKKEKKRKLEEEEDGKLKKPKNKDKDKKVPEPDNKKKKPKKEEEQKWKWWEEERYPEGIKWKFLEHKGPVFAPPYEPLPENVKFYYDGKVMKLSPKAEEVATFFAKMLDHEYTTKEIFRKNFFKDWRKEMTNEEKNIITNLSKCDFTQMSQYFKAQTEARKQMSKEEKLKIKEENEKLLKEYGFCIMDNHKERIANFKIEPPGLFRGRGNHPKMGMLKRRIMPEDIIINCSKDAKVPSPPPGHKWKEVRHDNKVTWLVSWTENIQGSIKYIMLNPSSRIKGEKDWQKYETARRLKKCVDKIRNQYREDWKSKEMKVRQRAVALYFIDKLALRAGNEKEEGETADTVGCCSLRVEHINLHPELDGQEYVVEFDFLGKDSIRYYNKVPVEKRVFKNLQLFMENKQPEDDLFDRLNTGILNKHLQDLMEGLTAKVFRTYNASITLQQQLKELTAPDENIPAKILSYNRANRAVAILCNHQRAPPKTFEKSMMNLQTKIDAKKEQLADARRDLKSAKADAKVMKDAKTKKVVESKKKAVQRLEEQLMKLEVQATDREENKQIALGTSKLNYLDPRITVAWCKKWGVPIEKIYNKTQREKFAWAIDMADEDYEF

[2] = tested on: NCI-60 cancer cell lines; experiment: NCI-60 cancer cell line drug screen (GI50, MGM); assay type: cell-based, human; details: Homo sapiens; for GI50: read-out: Antiproliferative Activities [GI50 (μM)]
Protocol: Cancer cells were incubated with the test compounds at five concentrations ranging from 100 μM to 10 nM for 48 h. […] The approximate average of GI50 values across the entire panel of NCI-60 cancer cell lines for each compound was recorded as the MGM value.

[3] = tested on: MYC protein expression in MCF-7 breast cancer cells; experiment: Western blotting of MYC protein level in MCF-7 cells; assay type: cell-based, human
In short: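 MCF-7 cells were exposed to compounds at 0.5, 1, 2 and 4 μM for 24 hours at 37° C. MYC was detected by immunoblot with ECL, using rabbit anti-MYC (1:1000) and anti-GAPDH (1:2000) as loading control.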

[4] = tested on: MycG4 (MycPu22 DNA); experiment: 1H NMR titration of MycPu22 DNA; assay type: binding, human; details: 150 μM DNA, 25° C., pH 7, 100 mM K+
Excerpt: The binding interactions of six selected indenoisoquinolines with MycG4 were examined using ^1H NMR titration experiments in K^+-containing solution. […] The binding appeared to be in the medium-to-fast exchange rate on the NMR time-scale, as shown by the broadening of DNA proton peaks at lower drug equivalence (0.5 and 1) and the sharpening at higher drug equivalence (2 and 3). […] The MycG4 complexes of the five MycG4-interactive indenoisoquinolines were monomeric in nature as shown by native EMSA gels (FIG. 13).
All NMR experiments were conducted using a Bruker AV-500 spectrometer equipped with a Prodigy cryoprobe at 25° C. Watergate water suppression technique was used to suppress water signals. Briefly, each DNA sample was prepared to a final concentration of […] in 75 mM KCl, 25 mM phosphate buffer at pH 7.0, and containing 90/10% H2O/D2O. DNA samples were heated to 95° C. for 5 min then cooled slowly to room temperature for G4 formation. ^1H-NMR titrations were performed by adding increasing amounts of the compound (0.5 to 4 equivalents) to the oligonucleotide solution.

CNCCCn1c2c(c3ccc(F)cc3c1=O)C(=O)c1cc(OC)cnc1-2 [Compound 6]
Top1 Inhibiton [1]: + (weak inhibition, +, MYC expression inhibited at 4.0 μM)
GI50 ([2]; 786-0, Renal Cancer, 786-0): 0.2 µM
GI50 ([2]; A498, Renal Cancer, A498): 0.37 µM
GI50 ([2]; A549, Non-Small Cell Lung Cancer, A549/ATCC): 0.11 µM
GI50 ([2]; ACHN, Renal Cancer, ACHN): 0.12 µM
GI50 ([2]; BT-549, Breast Cancer, BT-549): 0.58 µM
GI50 ([2]; CCRF-CEM, Leukemia, CCRF-CEM): 0.26 µM
GI50 ([2]; COLO 205, Colon Cancer, COLO 205): 0.07 µM
GI50 ([2]; DU-145, Prostate Cancer, DU-145): 0.2 µM
GI50 ([2]; EKVX, Non-Small Cell Lung Cancer, EKVX): 0.3 µM
GI50 ([2]; HCC 2998, Colon Cancer, HCC-2998): 1.15 µM
GI50 ([2]; HCT-15, Colon Cancer, HCT-15): 0.25 µM
GI50 ([2]; HCT-116, Colon Cancer, HCT-116): 0.14 µM
GI50 ([2]; HL-60, Leukemia, HL-60(TB)): 0.22 µM
GI50 ([2]; HOP-62, Non-Small Cell Lung Cancer, HOP-62): 0.14 µM
GI50 ([2]; HOP-92, Non-Small Cell Lung Cancer, HOP-92): 0.37 µM
GI50 ([2]; HT-29, Colon Cancer, HT29): 0.15 µM
GI50 ([2]; Hs-578T, Breast Cancer, HS 578T): 2.24 µM
GI50 ([2]; IGROV-1, Ovarian Cancer, IGROV1): 0.32 µM
GI50 ([2]; K562, Leukemia, K-562): 0.17 µM
GI50 ([2]; KM12, Colon Cancer, KM12): 0.24 µM
GI50 ([2]; LOX IMVI, Melanoma, LOX IMVI): 0.14 µM
GI50 ([2]; Leukemia, SR): 0.12 µM
GI50 ([2]; MCF7, Breast Cancer, MCF7): 0.03 µM
GI50 ([2]; MDA-MB-231, Breast Cancer, MDA-MB-231/ATCC): 0.7 µM
GI50 ([2]; MDA-MB-435, Melanoma, MDA-MB-435): 0.47 µM
GI50 ([2]; MDA-MB-468, Breast Cancer, MDA-MB-468): 0.22 µM
GI50 ([2]; MOLT-4, Leukemia, MOLT-4): 0.04 µM
GI50 ([2]; Malme-3M, Melanoma, MALME-3M): 0.32 µM
GI50 ([2]; Melanoma, M14): 0.31 µM
GI50 ([2]; NCI-H23, Non-Small Cell Lung Cancer, NCI-H23): 0.31 µM
GI50 ([2]; NCI-H226, Non-Small Cell Lung Cancer, NCI-H226): 0.16 µM
GI50 ([2]; NCI-H322M, Non-Small Cell Lung Cancer, NCI-H322M): 0.45 µM
GI50 ([2]; NCI-H460, Non-Small Cell Lung Cancer, NCI-H460): 0.05 µM
GI50 ([2]; NCI-H522, Non-Small Cell Lung Cancer, NCI-H522): 0.06 µM
GI50 ([2]; OVCAR-3, Ovarian Cancer, OVCAR-3): 0.26 µM
GI50 ([2]; OVCAR-4, Ovarian Cancer, OVCAR-4): 0.42 µM
GI50 ([2]; OVCAR-5, Ovarian Cancer, OVCAR-5): 0.35 µM
GI50 ([2]; OVCAR-8, Ovarian Cancer, OVCAR-8): 0.19 µM
GI50 ([2]; Ovarian Cancer, NCl/ADR-RES): 0.43 µM
GI50 ([2]; Prostate Cancer, PC-3): 0.37 µM
GI50 ([2]; RPMI-8226, Leukemia, RPMI-8226): 0.2 µM
GI50 ([2]; RXF 393, Renal Cancer, RXF 393): 0.32 µM
GI50 ([2]; Renal Cancer, U0-31): 0.13 µM
GI50 ([2]; SF-268, CNS Cancer, SF-268): 0.38 µM
GI50 ([2]; SF-295, CNS Cancer, SF-295): 0.19 µM
GI50 ([2]; SF-539, CNS Cancer, SF-539): 0.37 µM
GI50 ([2]; SK-MEL-2, Melanoma, SK-MEL-2): 1.6 µM
GI50 ([2]; SK-MEL-5, Melanoma, SK-MEL-5): 0.31 µM
GI50 ([2]; SK-MEL-28, Melanoma, SK-MEL-28): 1.44 µM
GI50 ([2]; SK-OV-3, Ovarian Cancer, SK-OV-3): 0.23 µM
GI50 ([2]; SN12C, Renal Cancer, SN12C): 0.21 µM
GI50 ([2]; SNB-19, CNS Cancer, SNB-19): 0.22 µM
GI50 ([2]; SNB-75, CNS Cancer, SNB-75): 0.25 µM
GI50 ([2]; SW-620, Colon Cancer, SW-620): 0.18 µM
GI50 ([2]; T47D, Breast Cancer, T-47D): 0.16 µM
GI50 ([2]; TK-10, Renal Cancer, TK-10): 0.33 µM
GI50 ([2]; U-251, CNS Cancer, U251): 0.11 µM
GI50 ([2]; UACC-62, Melanoma, UACC-62): 0.61 µM
GI50 ([2]; UACC-257, Melanoma, UACC-257): 0.49 µM
mean GI50 across NCI-60 panel (MGM) ([2]; average of GI50 values across the entire panel of NCI-60 cancer cell lines): 240 nM
minimal effective concentration ([3]; Homo sapiens, MCF7, western blotting, MCF-7 cells, 0.5, 1, 2, and 4 μM, 24 hours, read-out: MYC Inhibition): 0.5 to 1 µM
MYC-inhibitory effect (MYC protein, western blot) ([3]; MCF-7, 0.5, 1, 2, and 4 μM, 24 h): clear MYC-inhibitory effect
binding to MycG4 by 1H NMR titration [4]: more specific binding to MycG4

From US20210382058A1, “PATIENT SELECTION FOR TREATMENT OF MYC POSITIVE CANCERS WITH INDENOISOQUINOLINES” (Purdue Research Foundation, priority 2020, published 2021)
